According to US8410117B2, “Imidazopyrimidine derivatives” (Hoffmann-La Roche Inc., priority 2010, dated 2013):

Target: T1, human PDE10A (Homo sapiens, UniProt Q9Y233)
T1 construct: The human PDE10A full length assay; purchased Enzo Life Science, Lausen, Switzerland SE-534
Test: human PDE10A full length Scintillation Proximity Assay (SPA)
Type: biochemical
Conditions: 50 nM cGMP and 50 nM [3H]-cGMP, 20 minutes at room temperature; read-out: PDE10A inhibition IC50
Experimental: The following test was carried out in order to determine the activity of the compounds of the present invention. PDE10 activity of the compounds of the present invention was determined using a Scintillation Proximity Assay (SPA)-based method similar to the one previously described (Fawcett, L. et al., Proc Natl Acad Sci USA (2000) 97(7):3702-3707).
The human PDE10A full length assay was performed in 96-well micro titer plates. The reaction mixture of 50 μl contained 20 mM HEPES pH=7.5/10 mM MgCl2/0.05 mg/ml BSA (Sigma cat. #A-7906), 50 nM cGMP (Sigma, cat. #G6129) and 50 nM [^3H]-cGMP (GE Healthcare, cat. #TRK392 S.A. 13.2 Ci/mmol), 3.75 ng/well PDE10A enzyme (Enzo Life Science, Lausen, Switzerland cat #SE-534) with or without a specific test compound. A range of concentrations of the potential inhibitor was used to generate data for calculating the concentration of inhibitor resulting in 50% of the effect (e.g. IC50, the concentration of the competitor inhibiting PDE10A activity by 50%). Non-specific activity was tested without the enzyme. The reaction was initiated by the addition of the substrate solution (cGMP and [^3H]-cGMP) and allowed to progress for 20 minutes at room temperature. The reaction was terminated by adding 25 μl of YSi-SPA scintillation beads (GE Healthcare, cat. #RPNQ0150) in 18 mM zinc sulphate solution (stop reagent). After 1 h under shaking, the plate was centrifuged one minute at 170 g to allow beads to settle. Afterwards, radioactive counts were measured on a Perkin Elmer TopCount Scintillation plate reader.

T1 sequence (Q9Y233 1-779 isoform Q9Y233-1): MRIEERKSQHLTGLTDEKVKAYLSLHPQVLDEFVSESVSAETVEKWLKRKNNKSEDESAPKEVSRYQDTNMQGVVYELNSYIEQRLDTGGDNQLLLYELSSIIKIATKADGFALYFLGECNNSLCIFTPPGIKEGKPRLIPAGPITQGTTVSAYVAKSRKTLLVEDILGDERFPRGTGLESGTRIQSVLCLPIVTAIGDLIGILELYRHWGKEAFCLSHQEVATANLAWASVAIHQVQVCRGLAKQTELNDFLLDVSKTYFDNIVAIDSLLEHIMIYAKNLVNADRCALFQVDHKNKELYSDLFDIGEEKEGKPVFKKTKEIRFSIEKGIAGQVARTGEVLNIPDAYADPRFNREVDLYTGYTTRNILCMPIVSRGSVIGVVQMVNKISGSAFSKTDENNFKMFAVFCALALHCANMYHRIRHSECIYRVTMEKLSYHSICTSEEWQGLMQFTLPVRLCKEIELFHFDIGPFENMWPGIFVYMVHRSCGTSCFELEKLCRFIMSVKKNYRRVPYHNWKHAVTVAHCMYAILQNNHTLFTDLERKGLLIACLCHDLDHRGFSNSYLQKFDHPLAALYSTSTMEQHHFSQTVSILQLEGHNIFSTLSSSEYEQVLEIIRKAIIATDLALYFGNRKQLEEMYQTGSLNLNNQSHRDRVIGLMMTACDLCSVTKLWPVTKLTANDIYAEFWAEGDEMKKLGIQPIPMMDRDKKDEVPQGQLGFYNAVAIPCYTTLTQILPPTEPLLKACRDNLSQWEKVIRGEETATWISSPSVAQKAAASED

SMILES	IC50 [µM]
Cn1ncc(C(=O)NCc2ccno2)c1C(=O)Nc1ccn2cc(-c3ccccc3)nc2n1 [Example 131, N4-(isoxazol-5-ylmethyl)-1-methyl-N5-(2-phenylimidazo[1,2-a]pyrimidin-7-yl)-1H-pyrazole-4,5-dicarboxamide]	0.0351
Cn1ncc(C(=O)N2CCC2)c1C(=O)Nc1ccn2cc(-c3cccc(Br)c3)nc2n1 [Example 117, 4-(azetidine-1-carbonyl)-N-(2-(3-bromophenyl)imidazo[1,2-a]pyrimidin-7-yl)-1-methyl-1H-pyrazole-5-carboxamide]	0.0062
Cn1ncc(Br)c1C(=O)Nc1ccn2cc(-c3ccccc3)nc2n1 [Example 6, 4-Bromo-2-methyl-2H-pyrazole-3-carboxylic acid (2-phenyl-imidazo[1,2-a]pyrimidin-7-yl)-amide]	0.384
COc1cccc(-c2cn3ccc(NC(=O)c4c(C(=O)N(C)CCF)cnn4C)nc3n2)c1 [Example 111, 2-Methyl-2H-pyrazole-3,4-dicarboxylic acid 4-[(2-fluoro-ethyl)-methyl-amide]3-{[2-(3-methoxy-phenyl)-imidazo[1,2-a]pyrimidin-7-yl]amide}]	0.364
CCN(C)C(=O)c1[nH]nnc1C(=O)Nc1ccn2cc(-c3ccccc3)nc2n1 [Example 28, 1H-[1,2,3]Triazole-4,5-dicarboxylic acid 5-(ethyl-methyl-amide) 4-[(2-phenyl-imidazo[1,2-a]pyrimidin-7-yl)-amide]]	0.251
CN(C)C(=O)c1cnn(C)c1C(=O)Nc1ccn2cc(-c3cccc(OCCF)c3)nc2n1 [Example 102, 2-Methyl-2H-pyrazole-3,4-dicarboxylic acid 4-dimethylamide 3-({2-[3-(2-fluoro-ethoxy)-phenyl]-imidazo[1,2-a]pyrimidin-7-yl}-amide)]	0.0279
COCCN(C)C(=O)c1cnn(C)c1C(=O)Nc1ccn2cc(-c3cccc(OCF)c3)nc2n1 [Example 99, 2-Methyl-2H-pyrazole-3,4-dicarboxylic acid 3-{[2-(3-fluoromethoxy-phenyl)-imidazo[1,2-a]pyrimidin-7-yl]-amide}-4-[(2-methoxy-ethyl)-methyl-amide]]	0.019
CC(C)N(C)C(=O)c1cnn(C)c1C(=O)Nc1ccn2cc(-c3ccccc3)nc2n1 [Example 54, 2-Methyl-2H-pyrazole-3,4-dicarboxylic acid 4-(isopropyl-methyl-amide) 3-[(2-phenyl-imidazo[1,2-a]pyrimidin-7-yl)-amide]]	0.0343
Cn1ncc(C(=O)NCc2nnn[nH]2)c1C(=O)Nc1ccn2cc(-c3ccccc3)nc2n1 [Example 147, N4-((1H-tetrazol-5-yl)methyl)-1-methyl-N5-(2-phenylimidazo[1,2-a]pyrimidin-7-yl)-1H-pyrazole-4,5-dicarboxamide]	0.235
CN(CCF)C(=O)c1cnn(C)c1C(=O)Nc1ccn2cc(-c3ccccc3)nc2n1 [Example 95, 2-Methyl-2H-pyrazole-3,4-dicarboxylic acid 4-[(2-fluoro-ethyl)-methyl-amide]3-[(2-phenyl-imidazo[1,2-a]pyrimidin-7-yl)-amide]]	0.0122
CC(C)Cn1nc([N+](=O)[O-])cc1C(=O)Nc1ccn2cc(-c3ccccc3)nc2n1 [Example 13, 2-Isobutyl-5-nitro-2H-pyrazole-3-carboxylic acid (2-phenyl-imidazo[1,2-a]pyrimidin-7-yl)-amide]	0.0479
Cn1ncc(C(=O)NCc2noc(C3CC3)n2)c1C(=O)Nc1ccn2cc(-c3ccccc3)nc2n1 [Example 166, N4-((5-cyclopropyl-1,2,4-oxadiazol-3-yl)methyl)-1-methyl-N5-(2-phenylimidazo[1,2-a]pyrimidin-7-yl)-1H-pyrazole-4,5-dicarboxamide]	0.812
O=C(Nc1ccn2cc(-c3ccccc3)nc2n1)c1ccnc(Cl)c1 [Example 19, 2-Chloro-N-(2-phenyl-imidazo[1,2-a]pyrimidin-7-yl)-isonicotinamide]	0.553
CN(Cc1ccccn1)C(=O)c1cnn(C)c1C(=O)Nc1ccn2cc(-c3ccccc3)nc2n1 [Example 135, N4,1-dimethyl-N5-(2-phenylimidazo[1,2-a]pyrimidin-7-yl)-N4-(pyridin-2-ylmethyl)-1H-pyrazole-4,5-dicarboxamide]	0.0641

Further molecules by falling IC50, results first:

IC50 [µM]	SMILES
0.989	CC(C)c1noc(CNC(=O)c2cnn(C)c2C(=O)Nc2ccn3cc(-c4ccccc4)nc3n2)n1 [Example 171, N4-((3-isopropyl-1,2,4-oxadiazol-5-yl)methyl)-1-methyl-N5-(2-phenylimidazo[1,2-a]pyrimidin-7-yl)-1H-pyrazole-4,5-dicarboxamide]
0.671	O=C(Nc1ccn2cc(-c3ccccc3)nc2n1)c1ccnn1-c1ccccc1 [Example 4, 2-Phenyl-2H-pyrazole-3-carboxylic acid (2-phenyl-imidazo[1,2-a]pyrimidin-7-yl)-amide]
0.125	O=C(Nc1ccn2cc(-c3ccccc3)nc2n1)c1cc([N+](=O)[O-])nn1C1CCCC1 [Example 14, 2-Cyclopentyl-5-nitro-2H-pyrazole-3-carboxylic acid (2-phenyl-imidazo[1,2-a]pyrimidin-7-yl)-amide]
0.0997	CN(Cc1ccc(Br)cn1)C(=O)c1cnn(C)c1C(=O)Nc1ccn2cc(-c3ccccc3)nc2n1 [Example 136, N4-((5-bromopyridin-2-yl)methyl)-N4,1-dimethyl-N5-(2-phenylimidazo[1,2-a]pyrimidin-7-yl)-1H-pyrazole-4,5-dicarboxamide]
0.0806	CC(C)NC(=O)c1cnn(C)c1C(=O)Nc1ccn2cc(-c3ccccc3)nc2n1 [Example 60, 2-Methyl-2H-pyrazole-3,4-dicarboxylic acid 4-isopropylamide 3-[(2-phenyl-imidazo[1,2-a]pyrimidin-7-yl)-amide]]
0.0486	Cn1ncc(C(=O)N2CC3(COC3)C2)c1C(=O)Nc1ccn2cc(-c3ccccc3)nc2n1 [Example 132, 1-methyl-N-(2-phenylimidazo[1,2-a]pyrimidin-7-yl)-4-(2-oxa-6-azaspiro[3.3]heptane-6-carbonyl)-1H-pyrazole-5-carboxamide]
0.042	COc1cccc(C(=O)Nc2ccn3cc(-c4ccccc4)nc3n2)n1 [Example 22, 6-Methoxy-pyridine-2-carboxylic acid (2-phenyl-imidazo[1,2-a]pyrimidin-7-yl)-amide]
0.024	COC(=O)c1[nH]nnc1C(=O)Nc1ccn2cc(-c3ccccc3)nc2n1 [Example 26, 5-(2-Phenyl-imidazo[1,2-a]pyrimidin-7-ylcarbamoyl)-3H-[1,2,3]triazole-4-carboxylic acid methyl ester]
0.0218	CCN(C)C(=O)c1cnn(C)c1C(=O)Nc1ccn2cc(-c3cccc(OCC(=O)OC)c3)nc2n1 [Example 100, [3-(7-{[4-(Ethyl-methyl-carbamoyl)-2-methyl-2H-pyrazole-3-carbonyl]-amino}-imidazo[1,2-a]pyrimidin-2-yl)-phenoxy]-acetic acid methyl ester]
0.0147	CCN(C)C(=O)c1cnn(C)c1C(=O)Nc1ccn2cc(-c3cccc(F)c3)nc2n1 [Example 97, 2-Methyl-2H-pyrazole-3,4-dicarboxylic acid 4-(ethyl-methyl-amide) 3-{[2-(3-fluoro-phenyl)-imidazo[1,2-a]pyrimidin-7-yl]-amide}]
0.0129	CCOC(=O)c1cnn(CC)c1C(=O)Nc1ccn2cc(-c3ccccc3)nc2n1 [Example 62, 1-Ethyl-5-(2-phenyl-imidazo[1,2-a]pyrimidin-7-ylcarbamoyl)-1H-pyrazole-4-carboxylic acid ethyl ester]
0.0112	CN(C)C(=O)c1cnn(C)c1C(=O)Nc1ccn2cc(-c3cccc(F)c3)nc2n1 [Example 94, 2-Methyl-2H-pyrazole-3,4-dicarboxylic acid 4-dimethylamide 3-{[2-(3-fluoro-phenyl)-imidazo[1,2-a]pyrimidin-7-yl]amide}]
0.0061	CCN(C)C(=O)c1cnn(C)c1C(=O)Nc1ccn2cc(-c3cccc(OCCF)c3)nc2n1 [Example 89, 2-Methyl-2H-pyrazole-3,4-dicarboxylic acid 4-(ethyl-methyl-amide) 3-({2-[3-(2-fluoro-ethoxy)-phenyl]imidazo[1,2-a]pyrimidin-7-yl}-amide)]
0.0057	CN(C)C(=O)c1cnn(C)c1C(=O)Nc1ccn2cc(-c3cccc(OCF)c3)nc2n1 [Example 88, 2-Methyl-2H-pyrazole-3,4-dicarboxylic acid 4-dimethylamide 3-{[2-(3-fluoromethoxy-phenyl)-imidazo[1,2-a]pyrimidin-7-yl]-amide}]
0.0026	Cn1ncc(C(=O)NCc2ccn[nH]2)c1C(=O)Nc1ccn2cc(-c3ccccc3)nc2n1 [Example 113, N4-((1H-pyrazol-5-yl)methyl)-1-methyl-N5-(2-phenylimidazo[1,2-a]pyrimidin-7-yl)-1H-pyrazole-4,5-dicarboxamide]
0.0019	CCN(C)C(=O)c1cnn(C)c1C(=O)Nc1ccn2cc(-c3ccccc3)nc2n1 [Example 49, 2-Methyl-2H-pyrazole-3,4-dicarboxylic acid 4-(ethyl-methyl-amide) 3-[(2-phenyl-imidazo[1,2-a]pyrimidin-7-yl)-amide]]
